Where no end group is shown, it is not given here.
Tests used:
[1] = system: 1:1 solution of AF594-labeled anti-HSA affibody and AF488-labeled anti-IgG affibody; experiment: Affibody binding/elution in non-competitive conditions on peptide–Toyopearl, affibody mixture; details: for Yield (mass of affibody eluted vs. mass of bound affibody): non-competitive (pure affibody), PBS pH 7.4, 1 h, room temperature, elution pH 3.8, fluorescence spectroscopy; for capture of IgG-binding and HSA-binding affibodies compared: non-competitive, pure affibodies 1:1
Procedure: (§1) Ten peptides selected by sequence homology, namely, ARISRQ, IGKQRI, DIRIIR, QAAKRI, SHHSQR, DIHIRR, DHHKKA, DIRIQR, KSAYHS, and IHQRGQ, were tested as ligand candidates through binding studies in non-competitive conditions (pure affibody). The peptides were synthesized directly on Toyopearl AF-Amino 650 M resin by Fmoc/tBu synthesis; polymethacrylate-based Toyopearl resin was chosen as a chromatographic support for secondary screening in place of ChemMatrix, owing to its chemical resistance to the reagents and solvents used for peptide synthesis, low non-specific protein binding, and mechanical strength. The peptide–Toyopearl adsorbents were individually incubated with a 1:1 solution of AF594-labeled anti-HSA affibody and AF488-labeled anti-IgG affibody at the concentration of 1 mg/mL for 1 h at room temperature under gentle rotation. After washing with PBS, affibody elution (EL) was performed under acidic conditions (pH 3.8), followed by resin regeneration (R) using a harsh denaturing buffer (0.45% w/v 3-[(3-cholamidopropyl)dimethylammonio]-1-propanesulfonate (CHAPS) in 0.1 M glycine, pH 2.5). The amounts of affibodies in the unbound (UB), elution (EL), and regeneration (R) fractions, measured by fluorescence spectroscopy, were utilized to calculate the values of flow-through (FT) ratio (mass of affibody in the FT fraction vs. mass of fed antibody) and yield (mass of affibody eluted vs. mass of bound affibody), listed in Table 2.
(§2) The identified sequences were synthesized on Toyopearl AF-Amino 650 M resin by Fmoc/tBu synthesis to be tested for affibody binding in non-competitive mode. Aliquots of 50 μL of each peptide–Toyopearl adsorbent were transferred in a PCR tube, swollen in 20% methanol overnight, and copiously washed in 20% methanol to remove any residual chemical from peptide synthesis, before equilibrating in Milli-Q water followed by PBS, pH 7.4. Next, 100 μL of 50:50 solution of fluorescently labeled anti-HSA and anti-IgG affibodies (Section 2.3) at a total 1 mg/mL affibody concentration were incubated with every aliquot of peptide–Toyopearl resin for 1 h at room temperature under gentle rotation. Following incubation, the resins were pelleted by centrifugation, and the supernatant was collected and marked as “unbound” (UB) fraction. The resins were then washed with PBS and the supernatant were combined with the UB fractions. Protein elution (EL) was then performed by incubating the resins with 0.2 M acetate buffer at pH 3.8 (0.2 M acetic acid and 0.2 M sodium acetate at a 7:3 ratio) for 30 min at room temperature, and then by washing with the same elution buffer. Regeneration (R) was then performed by incubating the adsorbents with 100 mM glycine buffer at pH 2.5 added with 0.45% w/v CHAPS, at 4 °C for overnight. The collected elution fractions (EL and R) were finally equilibrated to neutral pH using PBS, pH 7.4. Finally, both UB and E fractions were diluted in PBS and analyzed by fluorescence spectroscopy.

anti-IgG affibody [2] = experiment: Affibody binding/elution in non-competitive conditions on peptide–Toyopearl, anti-IgG affibody; details: 100 μL of 50:50 labeled anti-HSA and anti-IgG affibodies, total 1 mg/mL, in PBS pH 7.4; 50 μL resin; 1 h, room temperature; elution 0.2 M acetate pH 3.8; fluorescence spectroscopy
Procedure: as §1, §2

anti-HSA affibody [3] = experiment: Affibody binding/elution in non-competitive conditions on peptide–Toyopearl, anti-HSA affibody; details: 100 μL of 50:50 labeled anti-HSA and anti-IgG affibodies, total 1 mg/mL, in PBS pH 7.4; 50 μL resin; 1 h, room temperature; elution 0.2 M acetate pH 3.8; fluorescence spectroscopy
Procedure: as §1, §2

anti-IgG affibody [4] = experiment: Affibody purification in competitive conditions (clarified E. coli cell lysate), anti-IgG affibody; type: binding; details: elution pH 3.8; for Recovery, anti-IgG affibody: 0.4 mg/mL affibody and 2 mg/mL E. coli HCPs, 200 μL feed, room temperature, eluted vs. loaded amount, fluorescence spectroscopy; for Purity, anti-IgG affibody: competitive, clarified E. coli cell lysate, densitometric analysis of EL lanes, SDS-PAGE
Procedure: (§3) The adsorbents IGKQRI–GSG–Toyopearl, IHQRGQ–GSG–Toyopearl, KSAYHS–GSG–Toyopearl, and DIRIIR–GSG–Toyopearl resins were utilized to evaluate the ability of the selected sequences to purify affibody molecules from complex sources. To this end, a feed sample was prepared by spiking fluorescently labeled anti-HSA and anti-IgG affibodies at a 1:1 molar ratio into clarified E. coli cell lysate, to obtain a final concentration of 0.4 mg/mL of affibody and 2 mg/mL of bacterial HCPs. The peptide–Toyopearl adsorbents were incubated with 200 μL of feed sample for 30 min at room temperature under gentle rotation. The unbound (UB) and elution (EL) fractions were analyzed by fluorescence spectroscopy and SDS-PAGE (Figure 1) to determine the values of recovery and purity for both affibody products (Table 3). It is noted that the mass of the affibody product measured electrophoretically appears to be double than the theoretical 6.5 kDa; this is likely due to dimerization of the affibodies by formation of a disulfide bond through their C-terminal cysteine residues.
(§4) Three sequences selected in Section 2.6 were then evaluated for affibody binding in competitive mode. Aliquots of 100 μL of the peptide–Toyopearl adsorbents were swollen and equilibrated as described in Section 2.6. The feed sample was prepared by combining 100 μL of equimolar solution of fluorescently labeled anti-HSA and anti-IgG affibodies at a total 2 mg/mL affibody concentration with 400 μL of clarified E. coli cell lysate at the adjusted concentration of host cell proteins (HCPs) of 2.5 mg/mL, to obtain a final concentration of 0.4 mg/mL of affibody and 2 mg/mL of HCPs. Next, 200 μL of feed samples were incubated with each aliquot of wet peptide–Toyopearl resin for 2 h at room temperature under gentle rotation. After incubation, unbound (UB) and elution (EL) fractions were obtained as described in Section 5.2.5; they were then analyzed by fluorescence spectroscopy to determine the yield of both affibodies and finally by SDS-PAGE to determine the total purity of the eluted affibody products.
(§5) The collected fractions were desalted into phosphate buffer at pH 7.4 using Amicon Ultra 0.5-mL centrifugal filters (3 kDa MWCO). Based on the total protein concentration determined by Bradford assay, the collected fractions were adjusted at a total protein concentration of 0.1 mg/mL, diluted 1:1 with 2× Laemmli sample buffer containing 5% β-mercaptoethanol, and incubated at 100 °C for 5 min. Next, 20 µL of each sample was loaded onto each well of a 12% Mini PROTEAN® TGX precast electrophoresis gel. Then, 10 µL of Precision Plus Protein TM Dual Color Standards diluted 100× in Laemmli sample buffer was loaded in the first and last wells. Gels were electrophoresed at 100 V constant for 95 min using a Mini PROTEAN Tetra Cell (Bio-Rad, Hercules, CA, USA) linked to a PowerPac 300 power supply (Bio-Rad). Gels were fixed in 10% acetic acid, 40% ethanol in MilliQ water for 1 h. Fixed gels were washed with MilliQ water and Coomassie stained. Imaging and densitometric analysis were performed with a GelDoc XR+ (Bio-Rad) and Image Lab software (Bio-Rad) with band intensities scaled to the intensity of an affibody standard.

anti-HSA affibody [5] = experiment: Affibody purification in competitive conditions (clarified E. coli cell lysate), anti-HSA affibody; type: binding; details: elution pH 3.8; for Recovery, anti-HSA affibody: 0.4 mg/mL affibody and 2 mg/mL E. coli HCPs, 200 μL feed, room temperature, eluted vs. loaded amount, fluorescence spectroscopy; for Purity, anti-HSA affibody: competitive, clarified E. coli cell lysate, densitometric analysis of EL lanes, SDS-PAGE
Procedure: as §3, §4, §5

[6] = system: anti-IgG, anti-HSA, and anti-ErbB2 affibodies; experiment: Langmuir adsorption isotherms, all three affibodies; type: binding
Procedure: The adsorption isotherms of anti-IgG, anti-HSA, and anti-ErbB2 affibodies on IGKQRI–GSG–Toyopearl resin were performed as described in prior work [37, 51]. Toyopearl resins functionalized with human IgG and serum albumin were utilized as corresponding positive controls, while Toyopearl® HW-40F was utilized as a negative control. Briefly, the adsorbents were incubated with solutions of target affibody at concentrations ranging between 0.01 and 2 mg/mL until binding equilibrium was reached (2.5 h). The values of bound affibody per volume of resin (q) and the corresponding equilibrium concentration of unbound affibody (C*) were fit to a Langmuir isotherm model to determine the value of maximum binding capacity (Qmax) and dissociation constant (KD,Langmuir).
Eight 50-µL aliquots of IGKQRI–GSG–Toyopearl resin were initially equilibrated in PBS at pH 7.4. Eight 0.2-mL solutions of anti-hIgG, anti-hHSA, and anti-ErbB2 affibodies in PBS at concentrations ranging from 0.01 to 2 mg/mL were prepared and incubated with the aliquots of IGKQRI–GSG–Toyopearl resin for 2.5 h at room temperature under mild shaking. […] The supernatant and washing solutions were combined and analyzed by fluorescence spectroscopy to determine the equilibrium concentration of affibody solution. The mass of affibody bound by the resin was determined by mass balance. […]

Yield (mass of affibody eluted vs. mass of bound affibody) [1] [%]	mFT/mE (Anti-IgG), flow-through elution mass ratio (anti-IgG affibody [2])	mFT/mE (Anti-HSA), flow-through elution mass ratio (anti-HSA affibody [3])	Substance	Recovery, anti-IgG affibody (anti-IgG affibody [4])	Purity, anti-IgG affibody (anti-IgG affibody [4]) [%]	Recovery, anti-HSA affibody (anti-HSA affibody [5])	Purity, anti-HSA affibody (anti-HSA affibody [5]) [%]	binding of all target affibodies compared ([6]; Langmuir isotherms)	binding capacity (Qmax), summary ([6]; static binding, pure affibodies, summary over three affibodies)	capture of IgG-binding and HSA-binding affibodies compared [1]
51.7	0.885	1.709	ARISRQ	–	–	–	–	–	–	–
38.5	1.256	2.039	DHHKKA	–	–	–	–	–	–	–
40.4	1.277	0.473	DIHIRR	–	–	–	–	–	–	–
–	0.707	1.553	DIRIIR	78.3% ± 2.5%	96.5	74.9% ± 3.6%	96.2	–	–	–
39.5	0.445	2.401	DIRIQR	–	–	–	–	–	–	–
–	0.446	0.781	IHQRGQ	95.3% ± 4.5%	93.1	96.1% ± 2.4%	92.6	–	–	equal capture of IgG-binding and HSA-binding affibodies
–	0.405	0.796	KSAYHS	88.6% ± 3.4%	96.4	89.5% ± 0.7%	96.3	–	–	equal capture of IgG-binding and HSA-binding affibodies
35	2.245	0.801	QAAKRI	–	–	–	–	–	–	–
44.3	1.238	1.387	SHHSQR	–	–	–	–	–	–	–

Substance	Yield (mass of affibody eluted vs. mass of bound affibody) [1] [%]	mFT/mE (Anti-IgG), flow-through elution mass ratio (anti-IgG affibody [2])	mFT/mE (Anti-HSA), flow-through elution mass ratio (anti-HSA affibody [3])	Recovery, anti-IgG affibody (anti-IgG affibody [4])	Purity, anti-IgG affibody (anti-IgG affibody [4]) [%]	Recovery, anti-HSA affibody (anti-HSA affibody [5])	Purity, anti-HSA affibody (anti-HSA affibody [5]) [%]	binding of all target affibodies compared ([6]; Langmuir isotherms)	binding capacity (Qmax), summary ([6]; static binding, pure affibodies, summary over three affibodies)	capture of IgG-binding and HSA-binding affibodies compared [1]
IGKQRI [IGKQRI]	–	0.448	0.628	97.2% ± 1.5%	95.8	95.2% ± 4.6%	94.1	comparable affinity and binding capacity	~ 5 mg affibody per mL of resin	equal capture of IgG-binding and HSA-binding affibodies

Reference: PMC7312911, “Affibody-Binding Ligands” (International Journal of Molecular Sciences, 2020)
